“Also recorded” adds a separate entry of the source.
How the values were obtained:
[1] = as described in US 2009/0311401; cited from earlier work
[2] = test system: group of 16 trained panelists; assay: Sensory Test 2: trained panelists score a beef broth (bouillon) on eight descriptors; assay type: in vivo, human; details: scale 0 to 6, average of 16 panelists
Description: A group of 16 trained panelists was instructed to evaluate the taste of a broth (bouillon) containing 0.5 wt. % of beef extract (Ref-beef) according to eight different descriptors in several repetitions. In a next step, these panelists were asked to rate said reference beef broth “Ref-beef” (presented at each testing session as a reference) against the following two different compositions consisting of “Ref-beef” and additionally a specific amount of the respective to be tested substance:
“Beef-I”=“Ref-beef”+10 ppm of the compound of Formula (I) of Synthesis Example 1,
“Beef-MSG”=“Ref-beef”+500 ppm (0.05 wt. %) of MSG
“Beef-MSG” was used as a positive umami standard.
The panelists judged the strength/intensity of the eight different descriptors in each case by awarding scores on a scale of from 0 (not corresponding to descriptor) to 6 (very strong). The results are present in the following table and FIGURE. All data are the averaged values for the group of 16 trained panelists for the respective scores for each descriptor.

[3] = stability to heat and to day-light; assay type: physicochemical
[4] = Sensory Test 3: Sip and Spit evaluation in water, bouillons, meat products and snacks; assay type: in vivo, human
Experimental: An additional sensory analysis was performed for the compound of Formula (I) of Synthesis Example 1, by “Sip and Spit” for all evaluations and the key results are summarized in the following table.

[5] = solubility; assay type: physicochemical
[6] = test system: bacterial strains of Salmonella typhimurium; assay: in vitro Ames plate incorporation test; assay type: cell-based
Description: (§1) A particularly preferred compound of the invention is 4-ethyl 2-pyridin-2-ylmethyl-3,5-dimethyl-1H-pyrrole-2,4-dicarboxylate. […] It performs as a MSG replacer at the concentration of 4-20 ppm, depending on the application, whereas at the concentration of 0.5-10 ppm, depending on the application, it performs as a MSG enhancer. The compound is not mutagenic in a standard in vitro Ames plate incorporation test in bacterial strains of Salmonella typhimurium either in the absence or presence of metabolic activation.

[7] = test system: expert panel (8 panelists); assay: Sensory Test 1: expert panel, aqueous solution, sipping, holding 10 seconds, spitting out; assay type: in vivo, human
Experimental: An expert panel (8 panelists) evaluated the sensory properties of the compound of Formula (I) of Synthesis Example 1. The compound of Formula (I) of Synthesis Example 1 was first dissolved in ethanol and then added in the corresponding amount in water. The aqueous solution was evaluated by sipping, holding it in the mouth for 10 seconds, and then spitting it out. The description “accumulating” means that the flavor perception gradually (further) increases a few seconds after taking the solution into the mouth, often even some time after the solution has been spit out.

[8] = test system: human sensory panel; assay: human sensory panel (summary statement); assay type: in vivo
Description: as §1

[9] = Beef-MSG = Ref-beef (broth, 0.5 wt. % beef extract) + 500 ppm (0.05 wt. %) MSG
[10] = Beef-I = Ref-beef (broth, 0.5 wt. % beef extract) + 10 ppm compound

For `CCNC(=O)O[C@H]1C[C@H](C)CC[C@H]1C(C)C` (racemic) [racemate of (1S,2S,5R)-2-isopropyl-5-methylcyclohexyl ethyl carbamate, (1S,2S,5R)-2-isopropyl-5-methylcyclohexyl ethyl carbamate], the flavor profile [1] is listed as “cooling, umami, menthol note”.
With `N[C@@H](CCC(=O)O)C(=O)[O-].[Na+]` [MSG, monosodium glutamate, reference compound] the Long-lastingness score [2, 9] was 4.3, the Meaty score [2, 9] was 5.3 and the Mouth-watering score [2, 9] was 4.4. It also gave a Mouthfeel score [2, 9] of 4.8, a Roasty score [2, 9] of 3.8 and a Salty score [2, 9] of 2.5. It also gave a Sour score [2, 9] of 2.9 and a Sweet score [2, 9] of 2.1.
Work on `CCOC(=O)c1c(C)[nH]c(C(=O)OCc2ccccn2)c1C` [Synthesis Example 1, 3,5-dimethyl-1H-pyrrole-2,4-dicarboxylic acid, 4-ethyl 2-(2-pyridinylmethyl)ester] yielded a Long-lastingness score [2, 10] of 5.4, a Meaty score [2, 10] of 5.5 and a Mouth-watering score [2, 10] of 4.9. It also gave a Mouthfeel score [2, 10] of 5.5, a Roasty score [2, 10] of 3.9 and a Salty score [2, 10] of 2.7. The Sour score [2, 10] was 2.9, the Sweet score [2, 10] was 1.5 and the stability to day-light ([3]; day-light) was “stable”. The stability to heat ([3]; heat) was “stable”, the “MSG ENHANCEMENT Chicken Bouillon + 0.01% MSG vs. 0.04% MSG, sensory description” value ([4]; 0.5 ppm in chicken bouillon + 0.01% MSG) was “warm, meaty; also recorded: fatty, slightly salty, round,; also recorded: slight sweet, good impact,” and the “Performance in Salted Water, sensory description” value ([4]; 3 ppm in salted water) was “clean, sweet umami, good”. The “Performance in Water, sensory description” value ([4]; 3 ppm in water) was “clean, sweet umami, good”, the “MSG REPLACEMENT Chicken Bouillon vs. 0.04% MSG, sensory description” value ([4]; 4 ppm in chicken bouillon) was “good, round, nice, clean” and the “MSG ENHANCEMENT Sour Cream & Onion Chips + 0.05% MSG vs. 0.4% MSG, sensory description” value ([4]; 6 ppm in sour cream & onion chips + 0.05% MSG) was “umami, pleasant, good”. The “MSG ENHANCEMENT Crackers + 0.03% MSG vs. 0.1% MSG, sensory description” value ([4]; 10 ppm in crackers + 0.03% MSG) was “umami, salivating, good”, the “MSG ENHANCEMENT Marinated Chicken + 0.05% MSG vs. 0.3% MSG, sensory description” value ([4]; 10 ppm in marinated chicken + 0.05% MSG) was “bad, eggy, white meat,; also recorded: malty” and the “MSG ENHANCEMENT Pork Burger + 0.03% MSG vs. 0.1% MSG, sensory description” value ([4]; 10 ppm in pork burger + 0.03% MSG) was “umami, sweet”. For the same compound, the “MSG REPLACEMENT Cocido Ham vs. 0.1% MSG, sensory description” value ([4]; 20 ppm in cocido ham) was “stronger, ok, meaty, sweet, and good”, the “MSG REPLACEMENT Marinated Chicken vs. 0.3% MSG, sensory description” value ([4]; 20 ppm in marinated chicken) was “meaty, umami balanced,; also recorded: seems salty” and the “MSG REPLACEMENT Sour Cream & Onion Chips vs. 0.4% MSG, sensory description” value ([4]; 20 ppm in sour cream & onion chips) was “umami balanced, pleasant,; also recorded: lingering, less salty, good,; also recorded: full, salivating, sweet, more; also recorded: creamy”. For the same compound, the “MSG ENHANCEMENT Chicken Bouillon + 0.01% MSG vs. 0.04% MSG, concentration” value ([4]; chicken bouillon + 0.01% MSG, vs. 0.04% MSG) was 0.5 ppm, the “MSG REPLACEMENT Chicken Bouillon vs. 0.04% MSG, concentration” value ([4]; chicken bouillon, vs. 0.04% MSG) was 4 ppm and the “MSG REPLACEMENT Cocido Ham vs. 0.1% MSG, concentration” value ([4]; cocido ham, vs. 0.1% MSG) was 20 ppm. For the same compound, the “MSG ENHANCEMENT Crackers + 0.03% MSG vs. 0.1% MSG, concentration” value ([4]; crackers + 0.03% MSG, vs. 0.1% MSG) was 10 ppm, the “concentration at which it performs as a MSG enhancer” value ([4]; depending on the application) was 0.5-10 ppm and the “concentration at which it performs as a MSG replacer” value ([4]; depending on the application) was 4-20 ppm. The “MSG ENHANCEMENT Marinated Chicken + 0.05% MSG vs. 0.3% MSG, concentration” value ([4]; marinated chicken + 0.05% MSG, vs. 0.3% MSG) was 10 ppm, the “MSG REPLACEMENT Marinated Chicken vs. 0.3% MSG, concentration” value ([4]; marinated chicken, vs. 0.3% MSG) was 20 ppm and the “MSG ENHANCEMENT Pork Burger + 0.03% MSG vs. 0.1% MSG, concentration” value ([4]; pork burger + 0.03% MSG, vs. 0.1% MSG) was 10 ppm. The “MSG REPLACEMENT Pork Burger vs. 0.1% MSG, concentration” value ([4]; pork burger, vs. 0.1% MSG) was 20 ppm, the “MSG ENHANCEMENT Sour Cream & Onion Chips + 0.05% MSG vs. 0.4% MSG, concentration” value ([4]; sour cream & onion chips + 0.05% MSG, vs. 0.4% MSG) was 6 ppm and the “MSG REPLACEMENT Sour Cream & Onion Chips vs. 0.4% MSG, concentration” value ([4]; sour cream & onion chips, vs. 0.4% MSG) was 20 ppm. For the same compound, the solubility [5] was “good solubility”, the “mutagenicity, Ames plate incorporation test” value ([6]; absence of metabolic activation) was “not mutagenic” and the “mutagenicity, Ames plate incorporation test” value ([6]; presence of metabolic activation) was “not mutagenic”. The “Description of sensory effects” value ([7]; 3 ppm + 0.05 wt. % MSG in water) was “Strong umami, meaty, mouthfeel,; also recorded: mouth-watering”, the “Description of sensory effects” value ([7]; 3 ppm in water) was “Strong umami, slightly metallic,; also recorded: some delay but lingering” and the “Description of sensory effects” value ([7]; 30 ppm + 0.05 wt. % MSG in water) was “Umami, meaty, accumulating”. For the same compound, the “Description of sensory effects” value ([7]; 30 ppm in water) was “Strong umami, long lasting”, the “after-taste or off notes” value [8] was “No after-taste or off notes are perceived” and the taste perception ([8]; 3 ppm) was “very pleasant savory taste perception”.
